Measurements published in publication PMC8362065, “Easily Available, Amphiphilic Diiron Cyclopentadienyl Complexes Exhibit in Vitro Anticancer Activity in 2D and 3D Human Cancer Cells through Redox Modulation Triggered by CO Release” (Chemistry (Weinheim an Der Bergstrasse, Germany), 2021).
Marks after values point to notes of the source that are not given here.

Experiments:
[1] = Stability in cell culture medium (DMEM) at 37 °C by 1H NMR; assay type: physicochemical; conditions: DMEM-d (6.6 % CD3OD)
Description: Next, the stability of the diiron compounds in a cell culture medium (DMEM) solution at 37 °C, over a shorter time range (24 h), was assessed by ^1H NMR.
Stability in water (D2O) and cell culture medium. The procedures are described in the Supporting Information, and data are collected in Table S3.
Table S3. Stability of diiron complexes in D2O, D2O/CD3OD, DMSO-d6/D2O and cell culture medium (DMEM-
d/CD3OD) solution at 37 °C calculated by 1H NMR (Me2SO2 internal standard).
% starting material (72 h) % starting material
Compound D O D O/CD OD DMSO-d /D O DMEM-d
[a] X = I for the stability in D 2O, X = CF3SO3 for the stability in cell culture medium. [b] Stability in D 2O and […]

[2] = system: Embryonic kidney HEK293 cells; test: MTT assay, noncancerous cell line; assay type: cell-based, human; conditions: 72 h; for IC50: HEK293 noncancerous cells, MTT; for SI (selectivity index): IC50 in noncancerous HEK293 cells / average IC50 in cancer cells
Description: As one of the main drawbacks of chemotherapeutics is the toxic effect toward noncancerous cells, we measured the cytotoxicity of tested complexes against a noncancerous cell line (HEK293) and calculated the selectivity index (SI, defined as the ratio between the IC50 value in noncancerous cells and the corresponding average IC50 value related to cancer cells; Table 5).
Compounds [2B]BF4, [2C]CF3SO3, [2D]CF3SO3 and [3F]CF3SO3 were dissolved in water while the other compounds were dissolved in the minimum DMSO amount prior to cell culture testing. A calculated amount of the stock drug DMSO solution was added to the cell culture media to reach a final maximum DMSO concentration of 0.5 %, which had no effects on cell viability.
Cell cultures. Human colon (HCT‐15), pancreatic (PSN‐1) and breast (MCF‐7) carcinoma cell lines along with human melanoma cells (A375) were obtained from American Type Culture Collection (ATCC, Rockville, MD). Embryonic kidney HEK293 cells were obtained from the European Collection of Cell Cultures (ECACC, Salisbury, UK). Human ovarian 2008 cancer cells were kindly provided by Prof. G. Marverti (Dept. of Biomedical Science of Modena University, Italy). MCF‐7 ADR cells were kindly provided by Prof. N. Colabufo (Dept. Pharmacy, University of Bari, Italy). Cell lines were maintained in the logarithmic phase at 37 °C in a 5 % CO2 atmosphere using the following culture media containing 10 % fetal calf serum (Euroclone, Milan, Italy), antibiotics (50 units/mL penicillin and 50 μg/mL streptomycin) and 2 mM L‐glutamine: i) RPMI‐1640 medium (Euroclone, Milan, Italy) for PSN‐1, 2008, HCT‐15, MCF‐7 and MCF‐7 ADR cells; ii) DMEM for A375 and HEK293 cells.
MTT assay. The growth inhibitory effect towards tumour cells was evaluated by means of MTT assay as previously described.[57] Briefly, 3–8×10^3 cells/well, dependent upon the growth characteristics of the cell line, were seeded in 96‐well microplates in growth medium (100 μL). After 24 h, the medium was removed and replaced with a fresh one containing the compound to be studied at the appropriate concentration. Triplicate cultures were established for each treatment. After 24 or 72 h, each well was treated with 10 μL of a 5 mg/mL MTT saline solution, and following 5 h of incubation, 100 μL of a sodium dodecyl sulfate (SDS) solution in HCl 0.01 M were added. After an overnight incubation, cell growth inhibition was detected by measuring the absorbance of each well at 570 nm using a Bio‐Rad 680 microplate reader. Mean absorbance for each drug dose was expressed as a percentage of the control untreated well absorbance and plotted against drug concentration. IC50 values, the drug concentrations that reduce the mean absorbance at 570 nm to 50 % of those in the untreated control wells, were calculated by the four‐parameter logistic (4‐PL) model. Evaluation was based on means from at least four independent experiments.

[3] = target: T1, Lysozyme from chicken egg white (Gallus gallus, UniProt P00698); test: Reactivity with model protein lysozyme, ESI-MS; conditions: 37 °C; for Reaction with lysozyme: compound/lysozyme 2 : 1, 24 h; for % Lysozyme methylation (alkylation): lysozyme:compound 1 : 2 molar ratio, 24 h, flow injection ESI-MS peak integrals
T1 construct: Lysozyme from chicken egg white (M=14 300 Da, 62971 Sigma‐Aldrich); purchased Sigma-Aldrich 62971; host or cells: chicken egg white (natural source)
Description: To gain insights into the reactivity of the diiron compounds with possible biomolecular targets, we selected lysozyme, a small model protein often used to test interactions with metal compounds.[36] Following 24 h incubation at 37 °C, diiron compounds/lysozyme solutions (2 : 1 molar ratio) in ammonium acetate were filtered and analysed by ESI‐MS. In all cases, the original organometallic cation was identified as the major Fe‐containing compound in solution (Figures S33‐S40). Concerning the protein scaffold, the only identified adduct from the interaction with [2–3]^+ was the methylated derivative, which was also checked by HPLC separation (Figure S41). The expected diiron counterparts, that is, 1A–H, could not be detected possibly due to their water insolubility. The [lysozyme+Me^+] to [lysozyme] ratios, calculated on extracted ion chromatograms after protein peak reconstruction, are reported in Table 4. […] Methylation is a common post‐translational modification of protein/enzymes (methyltransferase enzymes) but it has also been observed as a result of the interaction of proteins with various electrophiles.[37]
Lysozyme from chicken egg white (M=14 300 Da, 62971 Sigma‐Aldrich) was stored at 4 °C as received. A stock solution was prepared by dissolving the powder protein (125 μM) and NH4OAc (1.25×10^−2 M)[56] in HPLC water and was immediately used. Stock solutions of diiron complexes (c Fe2 =1×10^−3 M) were prepared by dissolving the selected compound in DMSO (0.25 mL) or MeOH (0.7 mL; used only for [4G]BF4), then diluting with HPLC water up to 5.0 mL total volume. Next, aliquots of the Fe (0.50 mL) and lysozyme (2.0 mL) stock solutions were mixed and the final solution (Fe2 200 μM, lysozyme 100 μM, NH4OAc 10 mM; 1 % DMSO) was kept at 37 °C for 24 h. The resulting suspensions were centrifuged (RCF 805, 5 min; Hettich EBA 8G) to separate the orange‐brown precipitate. A blank solution (lysozyme only) was prepared and treated by the same procedure. Next, samples were diluted 1 : 20 (v/v) with a water/MeCN (1 : 1, v/v) solution containing 1 % formic acid and analysed by HPLC‐MS and flow injection MS. For HPLC analyses, elution was conducted with a MeCN/water linear gradient (90 : 10 to 5 : 95 v/v over 60 min), containing 0.05 % trifluoroacetic acid. The following compounds were identified by their MS pattern: [2A]^+ (t R=18.0 min), [2B]^+ (t R=13.8 min), [2C]^+ (t R=18.8 min), [2D]^+ (t R=17.0 min), [2E]^+ (t R=18.3 min), [2F]^+ (t R=9.7 min), [3F]^+ (t R=13.1 min), [4G]^+ (t R=23.0 min), [5H]^+ (t R=24.3 min), lysozyme‐CH3 (t R=21.0 min), lysozyme (t R=21.6 min). In all cases, the starting organometallic cation was identified as the major Fe‐containing compound in solution. Protein peaks pattern were obtained following peak reconstruction. Peak integrals for lysozyme and methyl lysozyme were calculated from the extracted ion chromatograms from the flow injection MS analysis (Table 4).

T1 sequence (P00698 19-147): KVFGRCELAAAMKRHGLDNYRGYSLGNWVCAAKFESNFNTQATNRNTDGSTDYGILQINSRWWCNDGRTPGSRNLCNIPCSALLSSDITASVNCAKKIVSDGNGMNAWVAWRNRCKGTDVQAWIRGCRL

Substance | % starting material (24 h) [1] [%] | IC50 [2] [µM] | SI (selectivity index) [2] | Reaction with lysozyme [3] | % Lysozyme methylation (alkylation) [3]
[Fe2Cp2(CO)2(μ‐CO){μ‐CNBn2}]X [[5H]CF3SO3] | 75 | 98.3 ± 4.2 | 2.8 | did not react with lysozyme | 0 %^[b]
[Fe2Cp2(CO)2(μ‐CO){μ‐CNEt(2‐naphthyl)}]BF4 [[4G]BF4] | 85 | 89.5 ± 4.5 | 3.3 | did not react with lysozyme | 0 %^[b]
[Fe2Cp2(CO)2(μ‐CO){μ‐CNMe(1H‐indol‐6‐yl)}]CF3SO3 [[2A]CF3SO3] | 86 | 136 ± 6.4 | 2.3 |  | 45%
[Fe2Cp2(CO)2(μ‐CO){μ‐CNMe(4‐C6H4OMe)}]CF3SO3 [[2D]CF3SO3] | 77 | 94.3 ± 6.1 | 5.6 |  | 31%
[Fe2Cp2(CO)2(μ‐CO){μ‐CNMe(C6H11)}]X [[2C]CF3SO3] | 85 | 62.5 ± 4.9 | 3.6 |  | 50%
[Fe2Cp2(CO)2(μ‐CO){μ‐CNMe(CH2CHCH2)}]X [[3F]CF3SO3] |  | > 100 |  |  | 47%
[Fe2Cp2(CO)2(μ‐CO){μ‐CNMe(CH2PO3Et2)}]X [[2B]BF4] | 88 | > 100 |  |  | 49%
